According to ChEMBL document CHEMBL1681651, “A broad spectrum anticancer nucleoside with selective toxicity against human colon cells in vitro” (2011):

Tests used:
Type in all cases: functional
[1] = tested on: MCF7; assay: Growth inhibition of human MCF7 cells after 48 hrs by […] growth inhibition assay; conditions: MCF7, 48 h
[2] = tested on: 786-0; assay: Growth inhibition of human 786-0 cells after 48 hrs by […] growth inhibition assay; conditions: 786-0, 48 h
[3] = tested on: OVCAR-3; assay: Growth inhibition of human OVCAR3 cells assessed as cell growth at 10 uM after 48 hrs by SRB assay; conditions: OVCAR-3, 48 h, read-out: Activity
[4] = tested on: SF-295; assay: Growth inhibition of human SF295 cells assessed as cell growth at 10 uM after 48 hrs by SRB assay; conditions: SF-295, 48 h, read-out: Activity
[5] = tested on: NCI/ADR-RES; assay: Growth inhibition of human NCI/ADR-RES cells assessed as cell growth at 0.1 uM after 48 hrs by SRB assay; conditions: read-out: Activity
[6] = tested on: SK-MEL-5; assay: Growth inhibition of human SK-MEL-5 cells after 48 hrs by […] growth inhibition assay; conditions: SK-MEL-5, 48 h
[7] = tested on: UACC-62; assay: Growth inhibition of human UACC62 cells after 48 hrs by […] growth inhibition assay; conditions: UACC-62, 48 h
[8] = tested on: SK-MEL-2; assay: Growth inhibition of human SK-MEL-2 cells after 48 hrs by […] growth inhibition assay; conditions: SK-MEL-2, 48 h
[9] = tested on: KM12; assay: Growth inhibition of human KM12 cells assessed as cell growth at 1 mM after 48 hrs by SRB assay; conditions: KM12, 48 h, read-out: Activity
[10] = tested on: NCI-H522; assay: Growth inhibition of human NCI-H522 cells assessed as cell growth at 100 uM after 48 hrs by SRB assay; conditions: NCI-H522, 48 h, read-out: Activity
[11] = tested on: HCC 2998; assay: Growth inhibition of human HCC2998 cells assessed as cell growth at 1 uM after 48 hrs by SRB assay; conditions: HCC 2998, 48 h, read-out: Activity
[12] = tested on: DU-145; assay: Growth inhibition of human DU145 cells after 48 hrs by […] growth inhibition assay; conditions: DU-145, 48 h
[13] = tested on: SF-268; assay: Growth inhibition of human SF268 cells assessed as cell growth at 1 mM after 48 hrs by SRB assay; conditions: SF-268, 48 h, read-out: Activity
[14] = tested on: OVCAR-5; assay: Growth inhibition of human OVCAR5 cells assessed as cell growth at 1 mM after 48 hrs by SRB assay; conditions: OVCAR-5, 48 h, read-out: Activity
[15] = tested on: CCRF-CEM; assay: Growth inhibition of human CCRF-CEM cells assessed as cell growth at 10 uM after 48 hrs by SRB assay; conditions: read-out: Activity
[16] = tested on: MDA-MB-435; assay: Growth inhibition of human MDA-MB-435 cells assessed as cell growth at 1 mM after 48 hrs by SRB assay; conditions: MDA-MB-435, 48 h, read-out: Activity
[17] = tested on: SF-295; assay: Growth inhibition of human SF295 cells after 48 hrs by […] growth inhibition assay; conditions: SF-295, 48 h
[18] = tested on: SK-MEL-5; assay: Growth inhibition of human SK-MEL-5 cells assessed as cell growth at 100 uM after 48 hrs by SRB assay; conditions: SK-MEL-5, 48 h, read-out: Activity
[19] = tested on: IGROV-1; assay: Growth inhibition of human IGROV1 cells assessed as cell growth at 10 uM after 48 hrs by SRB assay; conditions: IGROV-1, 48 h, read-out: Activity
[20] = tested on: RXF 393; assay: Growth inhibition of human RXF393 cells after 48 hrs by […] growth inhibition assay; conditions: RXF 393, 48 h
[21] = tested on: SK-MEL-5; assay: Growth inhibition of human SK-MEL-5 cells assessed as cell growth at 1 uM after 48 hrs by SRB assay; conditions: SK-MEL-5, 48 h, read-out: Activity
[22] = tested on: CCRF-CEM; assay: Growth inhibition of human CCRF-CEM cells assessed as cell growth at 1 uM after 48 hrs by SRB assay; conditions: read-out: Activity
[23] = tested on: 786-0; assay: Growth inhibition of human 786-0 cells assessed as cell growth at 100 uM after 48 hrs by SRB assay; conditions: 786-0, 48 h, read-out: Activity
[24] = tested on: LOX IMVI; assay: Growth inhibition of human LOXIMVI cells assessed as cell growth at 0.1 uM after 48 hrs by SRB assay; conditions: read-out: Activity
[25] = tested on: SK-MEL-28; assay: Growth inhibition of human SK-MEL-28 cells after 48 hrs by […] growth inhibition assay; conditions: SK-MEL-28, 48 h
[26] = tested on: KM12; assay: Growth inhibition of human KM12 cells assessed as cell growth at 10 uM after 48 hrs by SRB assay; conditions: KM12, 48 h, read-out: Activity
[27] = tested on: Malme-3M; assay: Growth inhibition of human MALME-3M cells assessed as cell growth at 1 mM after 48 hrs by SRB assay; conditions: read-out: Activity
[28] = tested on: NCI-H322M; assay: Growth inhibition of human NCI-H322M cells assessed as cell growth at 100 uM after 48 hrs by SRB assay; conditions: read-out: Activity
[29] = tested on: A549; assay: Growth inhibition of human A549 cells assessed as cell growth at 0.1 uM after 48 hrs by SRB assay; conditions: A549, 48 h, read-out: Activity
[30] = tested on: OVCAR-5; assay: Growth inhibition of human OVCAR5 cells after 48 hrs by […] growth inhibition assay; conditions: OVCAR-5, 48 h
[31] = read-out: LC50 (the source's name)
[32] = read-out: pLC50 (the source's name) (converted)

CNC(=O)NC[C@H]1O[C@@H](n2cnc3c(NC(=O)Nc4ccccc4)ncnc32)[C@H](O[Si](C)(C)C(C)(C)C)[C@@H]1CC(=O)N(C)OC
GI50 ([1]; read-out: GI50): 5.59 µM | CC50 [1, 31]: > 100 µM | TGI ([1]; read-out: TGI): > 100 µM | GI50 ([1]; read-out: pGI50 (converted)): 5.62 µM | CC50 [1, 32]: > 100 µM | TGI ([1]; read-out: pTGI (converted)): > 100 µM | GI50 ([2]; read-out: GI50): 9.01 µM | CC50 [2, 31]: > 100 µM | TGI ([2]; read-out: TGI): > 100 µM | GI50 ([2]; read-out: pGI50 (converted)): 8.91 µM | CC50 [2, 32]: > 100 µM | TGI ([2]; read-out: pTGI (converted)): > 100 µM | growth at 10 µM [3]: 100% | growth at 10 µM [4]: 98% | growth at 0.1 µM [5]: 109% | GI50 ([6]; read-out: GI50): 5.81 µM | CC50 [6, 31]: > 100 µM | TGI ([6]; read-out: TGI): > 100 µM | GI50 ([6]; read-out: pGI50 (converted)): 5.75 µM | CC50 [6, 32]: > 100 µM | TGI ([6]; read-out: pTGI (converted)): > 100 µM | GI50 ([7]; read-out: GI50): 41.9 µM | CC50 [7, 31]: > 100 µM | TGI ([7]; read-out: TGI): > 100 µM | GI50 ([7]; read-out: pGI50 (converted)): 41.7 µM | CC50 [7, 32]: > 100 µM | TGI ([7]; read-out: pTGI (converted)): > 100 µM | GI50 ([8]; read-out: GI50): 14.9 µM | CC50 [8, 31]: > 100 µM | TGI ([8]; read-out: TGI): 83.1 µM | GI50 ([8]; read-out: pGI50 (converted)): 14.8 µM | CC50 [8, 32]: > 100 µM | TGI ([8]; read-out: pTGI (converted)): 83.2 µM | growth at 1000 µM [9]: 30% | growth at 100 µM [10]: 51% | growth at 1 µM [11]: 97% | GI50 ([12]; read-out: GI50): 16.6 µM | CC50 [12, 31]: > 100 µM | TGI ([12]; read-out: TGI): > 100 µM | GI50 ([12]; read-out: pGI50 (converted)): 16.6 µM | CC50 [12, 32]: > 100 µM | TGI ([12]; read-out: pTGI (converted)): > 100 µM | growth at 1000 µM [13]: 20% | growth at 1000 µM [14]: 35% | growth at 10 µM [15]: 96% | growth at 1000 µM [16]: 36% | GI50 ([17]; read-out: GI50): 9.09 µM | LC50 ([17]; read-out: LC50): 16.4 µM | TGI ([17]; read-out: TGI): > 100 µM | GI50 ([17]; read-out: pGI50 (converted)): 9.12 µM | LC50 ([17]; read-out: pLC50 (converted)): > 100 µM | TGI ([17]; read-out: pTGI (converted)): > 100 µM | growth at 100 µM [18]: 38% | growth at 10 µM [19]: 82% | GI50 ([20]; read-out: GI50): 9.74 µM | CC50 [20, 31]: > 100 µM | TGI ([20]; read-out: TGI): 38 µM | GI50 ([20]; read-out: pGI50 (converted)): 9.77 µM | CC50 [20, 32]: > 100 µM | TGI ([20]; read-out: pTGI (converted)): 38 µM | growth at 1 µM [21]: 98% | growth at 1 µM [22]: 100% | growth at 100 µM [23]: 48% | growth at 0.1 µM [24]: 97% | GI50 ([25]; read-out: GI50): 7.77 µM | CC50 [25, 31]: > 100 µM | TGI ([25]; read-out: TGI): > 100 µM | GI50 ([25]; read-out: pGI50 (converted)): 7.76 µM | CC50 [25, 32]: > 100 µM | TGI ([25]; read-out: pTGI (converted)): > 100 µM | growth at 10 µM [26]: 106% | growth at 1000 µM [27]: 23% | growth at 100 µM [28]: 90% | growth at 0.1 µM [29]: 97% | GI50 ([30]; read-out: GI50): 38.2 µM | CC50 [30, 31]: > 100 µM | TGI ([30]; read-out: TGI): > 100 µM | GI50 ([30]; read-out: pGI50 (converted)): 38 µM | CC50 [30, 32]: > 100 µM | TGI ([30]; read-out: pTGI (converted)): > 100 µM
